How the values were obtained:
MCAO rats = assay: Neurobehavioral scoring (Longa) in rat MCAO models; type: in vivo, Sprague-Dawley (SD) rat; conditions: for Neurobehavioral score (Longa Scoring, 0-4): n=8, glibenclamide 10 μg/kg ip at ischemia 4 h + 200 ng/h sc for 44 hours
Description: 7.2 Experiment Animals: Male Sprague-Dawley (SD) rat, clean grade, weighing at 200˜230 g. The temperature of animal feeding room was maintained at 20˜24° C., the humidity was maintained at 30˜70%; a cycle of lighting on 12 hours/lighting off 12 hours (06:00 AM on, 18:00 PM off) every day was employed. During the experiment, the animals were feed separately, and had free access to water and food.
The test drugs in group GB was formulated as follows: glibenclamide was dissolved in a little DMSO (dimethyl sulfoxide), the resulting solution was diluted to a DMSO concentration of 5 vol % with physiological saline, and the pH of the solution was adjusted to 8˜8.5 with NaOH. By means of the above process, solutions with glibenclamide concentration of 200 μg/ml and 10 μg/ml were respectively formulated.
The test drugs in group H-GB was formulated as follows: Taking the lyophilized product of Example 13, into which was added an appropriate amount of physiological saline and respectively formulated into a solution with a glibenclamide concentration of […].
Rats were rested for about 1 week before the experiment started. On the day of the experiment, the surgical tools were sterilized by autoclaving. The rats were anesthetized by intraperitoneally injecting chloral hydrate (330 mg/kg). The common carotid artery and external carotid artery of the rats were separated, and a sterilized MCAO monofilament was used to insert into the internal carotid artery through the opening of the external carotid artery to a depth of about 18 mm, until the head of the monofilament reached the starting part of the middle cerebral artery, the opening of the external carotid artery was ligatured to fix the monofilament. […] The blood flow in the brain was monitored with a laser Doppler (Model moorVMS-LDF2, Manufacturer moor) respectively pre-operation, post-operation and immediately after reperfusion, and the molding in which the ratio of the postoperative blood flow to the preoperative blood flow was less than 30% was regarded as a qualified molding. […]

[1] = background statement; cited from earlier work

In the case of `COc1ccc(Cl)cc1C(=O)NCCc1ccc(S(=O)(=O)NC(=O)NC2CCCCC2)cc1` [glibenclamide, 5-chloro-N-(4-[N-(cyclohexylcarbamoyl)aminosulfonyl]phenethyl)-2-methoxybenzamide], the “neurobehavioral scores compared with the control (in words)” value (MCAO rats; at 24 h, 48 h) was “declines”, the “Neurobehavioral score (Longa Scoring, 0-4)” value (MCAO rats; scored at ischemia 24 h) was 1.75 ± 0.25 and the “Neurobehavioral score (Longa Scoring, 0-4)” value (MCAO rats; scored at ischemia 48 h) was 2.00 ± 0.19. The water solubility [1] was “less than 5 μg/ml”.

Reference: patent publication US10966993B2, “Pharmaceutical composition comprising a sulfonylurea drug and preparation method thereof” (JIANGSU AOSAIKANG PHARMACEUTICAL CO., LTD., priority 2016, dated 2021)
